Entries after “also recorded” stand apart in the source; their conditions may differ. Like-named read-outs stand apart in the source and are kept apart here.
Columns and labels:
MDA-MB-231 = assay: Cytotoxicity / anti-proliferation assay (CCK-8), MDA-MB-231; type: cell-based; conditions: Homo sapiens
Protocol: (§1) A549, MDA-MB-231, HCT-8, MCF-7, and HEK293 cells were seeded at 8000-10000 cells (100 μl) in white 96-well plates and pre-incubate the plate for 24 h under standard cell culture conditions, respectively. Then the cells were exposed to the different inhibitors with various concentrations for 72 h. Finally, 10 μl of CCK-8 kit solution was added to each well and incubated for 3-4 hours under standard cell culture conditions, and the 96 well plates were measured the absorbance at 450 nm using Perkin-Elmer Wallac Victor ^3V 1420 multi label plate reader (Perkin-Elmer, Wellesley, USA). EC50s were calculated using GraphPad Prizm statistical package with sigmoidal variable slope dose response curve fit.
(§2) Cell anti-proliferation assays were performed to determine the toxicity of these inhibitors. Several cell lines (MDA-MB-231, MCF-7, A549 and HCT-8) were incubated and then treated with varying concentrations of the inhibitors for 72 h, respectively. […] These compounds were further evaluated against the control cell line HEK293 to test their toxicity with a non-cancerous cell line.

HEK293 = assay: Toxicity assay (CCK-8) in control non-cancerous cell line; type: cell-based
Protocol: as §1, §2

[1] = biological target: T1, Mouse histone methyltransferase G9a (969-1263) (Mus musculus, UniProt Q9Z148); assay: MALDI-TOF methylation study of G9a inhibition; type: biochemical; conditions: inhibitors at 5 μM concentration for 30 min
T1 construct: The 6His-sumo mG9a (969-1263) protein was purified using the following procedure; 6His-sumo (cleaved yes); made in house; host or cells: Escherichia coli BL21 (DE3)
T1 sequence (Q9Z148 969-1263): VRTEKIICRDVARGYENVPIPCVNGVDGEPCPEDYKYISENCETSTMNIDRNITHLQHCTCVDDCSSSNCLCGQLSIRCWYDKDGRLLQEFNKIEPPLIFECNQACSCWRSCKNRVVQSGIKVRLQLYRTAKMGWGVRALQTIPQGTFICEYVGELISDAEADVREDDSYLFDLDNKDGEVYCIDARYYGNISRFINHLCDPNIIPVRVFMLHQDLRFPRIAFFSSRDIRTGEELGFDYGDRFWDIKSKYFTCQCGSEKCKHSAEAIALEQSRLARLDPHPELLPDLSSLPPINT
Protocol: Mouse histone methyltransferase G9a (969-1263) cDNA was amplified from the cDNA of BALB/c mouse thymus, and the fragment was sub-cloned into a vector with a 6His-sumo tag. […] The 6His-sumo mG9a (969-1263) protein was purified using the following procedure: harvested cell pellet was re-suspended in 20 mM Tris (pH 8.0), 500 mM NaCl, 0.1% β-mercaptoethanol, and 1 mM PMSF. Cells were lysed by sonicating for 15 seconds with 6 second intervals for a total time of 15 minutes on an ice bath. […] The 6His-sumo tag was cleaved from the column by adding Ubiquitin-like-specific protease 1 (ULP-1) at 4° C. for 12 hours. Wash buffer was then run through the Ni^+ column again and the elution buffer collected. Subsequently, advanced protein purification was done by HiTrap Q HP sequential Superdex 200 10/300 GL. Elute of every step was analyzed by SDS PAGE, stained by Coomassie brilliant blue (CBB). […] The reaction was incubated at room temperature for 30 min, and stopped by TFA. 1 μL of the sample was mixed with CHCA matrix and m/z peaks were obtained at reflection positive mode. The results of mass spectrum were analyzed using the Bruker flex analysis software and data processing was carried out as described below. MALDI-TOF based experiments were performed according to the protocol developed by Chang et al. (Nat. Struct. Mol. Biol. 2009, 16, 312-317). MALDI spectra were collected using Bruker flex control software and analyzed by flex analysis. After labelling each cluster peaks of H3K9Me0, H3K9Me1 and H3K9Me2 for all of the tested concentrations, area under the cluster (AUC) were extracted by using the same flex analysis software. % abundance of each peak was calculated by following formula: A=% Abundance of (H3K9Me0)=area of H3K9Me0/(area of H3K9Me0+area of H3K9Me1+area of H3K9Me2) B=% Abundance of (H3K9Me1)=area of H3K9Me1/(area of H3K9Me0+area of H3K9Me1+area of H3K9Me2) C=% Abundance of (H3K9Me2)=area of H3K9Me2/(area of H3K9Me0+area of H3K9Me1+area of H3K9Me2). This was repeated for each spectra (3 multiples for each samples). […] Finally % inhibition was found by subtracting % MA(i) from 100. […] A biochemical assay using MALDI-TOF was used to visualize the effects of the synthesized compounds on G9a enzymatic activity. […] Struct. Mol. Biol. 2009, 16, 312-317).

G9a = biological target: T2, G9a (Homo sapiens, UniProt Q96KQ7); assay: H3K9Me2 cell immunofluorescence in-cell Western (ICW) assay; type: cell-based; conditions: MDA-MB-231 cell line, 48 h
T2 construct: endogenous in cells; host or cells: MDA-MB-231
T2 sequence (Q96KQ7 1-1210): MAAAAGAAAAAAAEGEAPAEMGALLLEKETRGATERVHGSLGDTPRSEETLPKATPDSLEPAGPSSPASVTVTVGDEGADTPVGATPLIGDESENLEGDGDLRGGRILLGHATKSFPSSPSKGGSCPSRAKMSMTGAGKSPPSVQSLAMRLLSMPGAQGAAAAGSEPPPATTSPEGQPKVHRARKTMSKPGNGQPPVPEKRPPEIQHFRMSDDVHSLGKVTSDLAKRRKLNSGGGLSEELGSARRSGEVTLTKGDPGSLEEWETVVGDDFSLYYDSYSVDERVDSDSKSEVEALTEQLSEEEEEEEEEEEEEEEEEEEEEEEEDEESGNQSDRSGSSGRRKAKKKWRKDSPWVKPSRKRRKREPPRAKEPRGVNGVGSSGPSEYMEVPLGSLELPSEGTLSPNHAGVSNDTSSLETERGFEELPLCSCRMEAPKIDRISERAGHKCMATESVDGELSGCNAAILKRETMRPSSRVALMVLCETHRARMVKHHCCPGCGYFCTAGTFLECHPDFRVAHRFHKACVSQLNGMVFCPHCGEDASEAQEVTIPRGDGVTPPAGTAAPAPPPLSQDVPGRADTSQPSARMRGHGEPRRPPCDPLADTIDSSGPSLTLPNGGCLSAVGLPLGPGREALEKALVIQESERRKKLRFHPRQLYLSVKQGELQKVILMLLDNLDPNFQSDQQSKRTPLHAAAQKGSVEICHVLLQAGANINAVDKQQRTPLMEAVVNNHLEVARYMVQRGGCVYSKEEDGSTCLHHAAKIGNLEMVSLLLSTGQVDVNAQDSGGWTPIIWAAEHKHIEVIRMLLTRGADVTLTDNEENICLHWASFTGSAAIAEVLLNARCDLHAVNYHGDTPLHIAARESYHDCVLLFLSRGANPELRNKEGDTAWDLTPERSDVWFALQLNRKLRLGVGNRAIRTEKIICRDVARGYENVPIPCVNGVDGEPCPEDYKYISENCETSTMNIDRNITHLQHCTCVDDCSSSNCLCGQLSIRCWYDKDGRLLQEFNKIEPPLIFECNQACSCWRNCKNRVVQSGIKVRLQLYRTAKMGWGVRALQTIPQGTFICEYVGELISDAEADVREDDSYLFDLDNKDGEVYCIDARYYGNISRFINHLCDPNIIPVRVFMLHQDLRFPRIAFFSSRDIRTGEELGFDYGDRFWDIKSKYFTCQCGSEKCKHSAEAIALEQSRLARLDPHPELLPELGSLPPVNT
Protocol: After the incubation, the media was removed and 100 μl fixation and permeabilization solution (2% formaldehyde in PBS) for fixation was added for 30 min. And then use 200 μl 0.1% Triton X100 in PBS washing solution to wash (allow wash to shake on a plate shaker for 5 minutes). After five washes, cells were blocked for 1 h with 150 μl blocking buffer to each well (1% BSA in PBS) (allow blocking at RT with moderate shaking on a plate shaker). After 1 h, remove the blocking buffer from the blocking step and add primary antibody in blocking buffer to cover the bottom of each well. […] The plates were read on an Odyssey CLX (LiCor) scanner at both 800 nm (H3K9me2 signal) and 700 nm (cell tag 700 stain signal) channels. IC50s were calculated using GraphPad Prizm statistical package with sigmoidal variable slope dose response curve fit.

HCT-8 = assay: Cytotoxicity / anti-proliferation assay (CCK-8), HCT-8; type: cell-based; conditions: Homo sapiens, 72 h, CCK-8 kit
Protocol: (§3) Then the cells were exposed to the different inhibitors with various concentrations for 72 h. […] EC50s were calculated using GraphPad Prizm statistical package with sigmoidal variable slope dose response curve fit.
(§4) Cell anti-proliferation assays were performed to determine the toxicity of these inhibitors. […] These compounds were further evaluated against the control cell line HEK293 to test their toxicity with a non-cancerous cell line.

HDAC [2] = assay: Homogeneous cellular HDAC assay, statements in text without one cell line; conditions: result in words
Protocol: (§5) After 24 h, 9 μl inhibitors with different concentration were added to the HeLa cells and incubation was continued for 3 h under cell culture conditions. After this treatment period, 10 μl of a 2 mM stock solution of the substrate Boc-K(Ac)-AMC was added into the 96 well plates with Hela cells and inhibitors. […] A549 and K562 cell lines used the same method, respectively. IC50s were calculated using GraphPad Prizm statistical package with sigmoidal variable slope dose response curve fit.
(§6) Boc-K(Ac)-AMC was used as a cell-permeable HDAC substrate, as after deacetylation it is cleaved by trypsin to release the florescent 7-amino-4-methylcoumarin (AMC).

HDAC [3] = assay: Cell based homogenous HDAC assay, Hela; conditions: read-out: IC50-HDAC Hela; Hela cells, mean ± SD of triplicate
Protocol: as §5, §6

HDAC [4] = assay: Cell based homogenous HDAC assay, A549; conditions: read-out: IC50-HDAC A549; A549 cells, mean ± SD of triplicate
Protocol: as §5, §6

HDAC [5] = assay: Cell based homogenous HDAC assay, K562; conditions: read-out: IC50-HDAC K562; K562 cells, mean ± SD of triplicate
Protocol: as §5, §6

A549 = assay: Cytotoxicity / anti-proliferation assay (CCK-8), A549; type: cell-based; conditions: Homo sapiens, 72 h, CCK-8 kit
Protocol: as §3, §4

[6] = alone or as 1:1 mixture, 1-100 μM, read-out: EC50 value

inhibition at 5 µM [1]	IC50 (G9a)	IC50 (HDAC [3])	IC50 (HDAC [4])	IC50 (HDAC [5])	Compound	EC50 (MDA-MB-231; 72 h, CCK-8 kit, read-out: EC50 MDA-MB-231)	EC50 (MDA-MB-231; [6])	toxicity in normal cell line (HEK293)	EC50 (HCT-8)	HDAC inhibition activity (HDAC [2])	EC50 (A549)
					O=C(CCCCCCC(=O)Nc1ccccc1)NO [SAHA, N-hydroxy-N′-phenyl-octanediamide]	2.87 ± 0.84 µM	2.87 ± 0.84 µM	toxic			
69.5 ± 3.43%	7.14 ± 1.62 µM				COc1ccc2c(NC3CCN(Cc4ccccc4)CC3)nc(NCCNC(=O)CCCCCC(=O)NO)nc2c1 [Compound 14, N1-(2-((4-((1-benzylpiperidin-4-yl)amino)-7-methoxyquinazolin-2-yl)amino)ethyl)-N7-hydroxyheptanediamide]			lower toxicity; also recorded: less toxic compared to 13	73.1 ± 1.21 µM	significant HDAC inhibition	
77.7 ± 5.73%		> 100 µM	> 100 µM	> 100 µM	COc1cc2nc(N3CCCN(C)CC3)nc(NC3CCN(Cc4ccccc4)CC3)c2cc1OC.Cl.Cl.Cl [BIX-01294, 2-(hexahydro-4-methyl-1H-1,4-diazepin-1-yl)-6,7-dimethoxy-N-[1-(phenylmethyl)-4-piperidinyl]-4-quinazolinamine trihydrochloride, reference compound]		2.16 ± 0.88 µM	toxic			
38 ± 4.99%	87.4 ± 5.44 µM				COc1cc2nc(NCCNC(=O)CCCCCC(=O)NO)nc(NC3CCN(Cc4ccccc4)CC3)c2cc1OC [Compound 5b, N1-(2-((4-((1-benzylpiperidin-4-yl)amino)-6,7-dimethoxyquinazolin-2-yl)amino)ethyl)-N7-hydroxyheptanediamide]				> 100 µM	much lower than that of 14	> 100 µM
62 ± 14.4%	37.8 ± 2.8 µM				COc1ccc2c(NC3CCN(Cc4ccccc4)CC3)nc(NCCNC(=O)CCCCCCC(=O)NO)nc2c1 [Compound 13, N1-(2-((4-((1-benzylpiperidin-4-yl)amino)-7-methoxyquinazolin-2-yl)amino)ethyl)-N8-hydroxyoctanediamide]			lower toxicity	> 100 µM	significant HDAC inhibition	

Source: patent US20190322643A1 (Georgia State University Research Foundation, Inc., priority 2016, published 2019)
